# Activity calls are given as the source filed them. The calls are words filed in the database; no cut-off is given here.
# Key:
# [1] = Antiproliferative activity against human Cisplatin and radiotherapy resistant CAL27RR cells incubated for 48 hrs by XTT assay; type: functional, cell-based
# [2] = molecular target: G protein-coupled receptor kinase 5 (Homo sapiens) (UniProt P34947); assay: Inhibition of GRK5 (unknown origin) at 10 uM in presence of ATP at Km concentration
# [3] = test system: A498; assay: Antiproliferative activity against human A498 cells incubated for 48 hrs by XTT assay; type: functional, cell-based; details: A498, 48 h
# [4] = Genotoxicity in Salmonella typhimurium TA1535 upto 100 uM in absence of S9 fraction by Ames test; type: toxicity; details: salmonella enterica subsp. enterica serovar typhimurium, s9, 100 µM
# [5] = molecular target: Casein kinase I isoform epsilon (Homo sapiens) (UniProt P49674); assay: Inhibition of CSNK1E (unknown origin) at 10 uM in presence of ATP at Km concentration
# [6] = molecular target: Vascular endothelial growth factor receptor 2 (Homo sapiens) (UniProt P35968); assay: Inhibition of KDR (unknown origin) at 10 uM in presence of ATP at Km concentration
# [7] = test system: A498; assay: Inhibition of cell invasion in human A498 cells cultured as 3D spheroids at 5 uM measured after 7 days by light microscopic imaging analysis relative to control; type: functional; details: A498, 168 h, time 7 day
# [8] = Cmax in NOD SCID mouse at 50 mg/kg, po; type: ADME, organism-based; details: in vivo
# [9] = Genotoxicity in Salmonella typhimurium TA1535 upto 100 uM in presence of S9 fraction by Ames test; type: toxicity, subcellular; details: salmonella enterica subsp. enterica serovar typhimurium, s9, 100 µM
# [10] = molecular target: TGF-beta receptor type-2 (Homo sapiens) (UniProt P37173); assay: Inhibition of TGFBR2 (unknown origin) at 10 uM in presence of ATP at Km concentration
# [11] = molecular target: Tyrosine-protein kinase Fyn (Homo sapiens) (UniProt P06241); assay: Inhibition of FYN (unknown origin) at 10 uM in presence of ATP at Km concentration
# [12] = molecular target: CDK7/Cyclin H/MNAT1 (Homo sapiens) (UniProt P51946+P50613+P51948); assay: Inhibition of CDK7/cyclin H/MNAT1 (unknown origin) at 10 uM in presence of ATP at Km concentration; type: protein-complex assay
# [13] = Stability in human microsomes assessed as half-life; type: ADME, Microsome
# [14] = molecular target: Phosphatidylinositol 4-phosphate 3-kinase C2 domain-containing subunit alpha (Homo sapiens) (UniProt O00443); assay: Inhibition of PIK3C2A (unknown origin) at 10 uM in presence of ATP at Km concentration
# [15] = Stability in human microsomes assessed as compound remaining measured after 1 hrs; type: ADME, Microsome; details: read-out: Stability
# [16] = C0 in NOD SCID mouse at 1 mg/kg, iv; type: ADME, organism-based; details: in vivo
# [17] = molecular target: Eukaryotic elongation factor 2 kinase (Homo sapiens) (UniProt O00418); assay: Inhibition of EEF2K (unknown origin) at 10 uM in presence of ATP at Km concentration
# [18] = molecular target: [Pyruvate dehydrogenase (acetyl-transferring)] kinase isozyme 1, mitochondrial (Homo sapiens) (UniProt Q15118); assay: Inhibition of PDK1 (unknown origin) at 10 uM in presence of ATP at Km concentration
# [19] = test system: CAL-33; assay: Antiproliferative activity against human CAL-33 cells incubated for 48 hrs by XTT assay; type: functional, cell-based; details: CAL-33, 48 h
# [20] = molecular target: Insulin receptor (Homo sapiens) (UniProt P06213); assay: Inhibition of INSR (unknown origin) at 10 uM in presence of ATP at Km concentration
# [21] = Antiproliferative activity against human Cisplatin and radiotherapy resistant CAL33RR cells incubated for 48 hrs by XTT assay; type: functional, cell-based
# [22] = molecular target: Phosphatidylinositol 4-phosphate 5-kinase type-1 gamma (Homo sapiens) (UniProt O60331); assay: Inhibition of PIP5K1C (unknown origin) at 10 uM in presence of ATP at Km concentration
# [23] = AUC (0 to infinity) in NOD SCID mouse at 200 mg/kg, po; type: ADME, organism-based; details: in vivo
# [24] = molecular target: Mitogen-activated protein kinase kinase kinase kinase 5 (Homo sapiens) (UniProt Q9Y4K4); assay: Inhibition of MAP4K5 (unknown origin) at 10 uM in presence of ATP at Km concentration
# [25] = Half-life in NOD SCID mouse at 100 mg/kg, po; type: ADME, organism-based; details: in vivo
# [26] = Genotoxicity in Salmonella typhimurium TA1537 upto 100 uM in absence of S9 fraction by Ames test; type: toxicity; details: salmonella enterica subsp. enterica serovar typhimurium, s9, 100 µM
# [27] = Stability in human microsomes assessed as intrinsic clearance; type: ADME, Microsome
# [28] = molecular target: Ribosomal protein S6 kinase alpha-4 (Homo sapiens) (UniProt O75676); assay: Inhibition of RPS6KA4 (unknown origin) at 10 uM in presence of ATP at Km concentration
# [29] = Tmax in NOD SCID mouse at 100 mg/kg, po; type: ADME, organism-based; details: in vivo
# [30] = Cmax in NOD SCID mouse at 200 mg/kg, po; type: ADME, organism-based; details: in vivo
# [31] = molecular target: Interleukin-1 receptor-associated kinase 4 (Homo sapiens) (UniProt Q9NWZ3); assay: Inhibition of IRAK4 (unknown origin) at 10 uM in presence of ATP at Km concentration
# [32] = Oral bioavailability in NOD SCID mouse at 200 mg/kg; type: ADME, organism-based; details: in vivo
# [33] = Genotoxicity in Salmonella typhimurium TA100 upto 100 uM in absence of S9 fraction by Ames test; type: toxicity; details: salmonella enterica subsp. enterica serovar typhimurium, s9, 100 µM
# [34] = molecular target: Ephrin type-B receptor 2 (Homo sapiens) (UniProt P29323); assay: Inhibition of EPHB2 (unknown origin) at 10 uM in presence of ATP at Km concentration
# [35] = Stability of compound in DMSO measured after 24 hrs; type: physicochemical
# [36] = Stability in mouse microsomes assessed as compound remaining measured after 1 hrs; type: ADME, Microsome; details: read-out: Stability
# [37] = AUC (0 to infinity) in NOD SCID mouse at 100 mg/kg, po; type: ADME, organism-based; details: in vivo
# [38] = molecular target: Serine/threonine-protein kinase D2 (Homo sapiens) (UniProt Q9BZL6); assay: Inhibition of PRKD2 (unknown origin) at 10 uM in presence of ATP at Km concentration
# [39] = test system: A498; assay: Downregulation of CXCL1 mRNA expression in human A498 cells at 1 to 2.5 uM incubated for 48 hrs by qPCR analysis; type: functional, cell-based; details: dose 1-2.5 µM
# [40] = test system: TIME; assay: Antiangiogenic activity in human TIME cells assessed as disruption of blood vessel network at 2.5 uM incubated for 24 hrs; type: functional, cell-based
# [41] = Genotoxicity in Salmonella typhimurium TA100 upto 100 uM in presence of S9 fraction by Ames test; type: toxicity, subcellular; details: salmonella enterica subsp. enterica serovar typhimurium, s9, 100 µM
# [42] = molecular target: Interleukin-8 receptors, CXCR1/CXCR2 (Homo sapiens) (UniProt P25025+P25024); assay: Inhibition of CXCR1/2 pathway in human A498 cells assessed as reduction in AKT phosphorylation at 2.5 uM incubated for 24 to 48 hrs by immunoblot analysis; type: functional, cell-based; details: time 24-48 hrs
# [43] = molecular target: Serine/threonine-protein kinase SIK3 (Homo sapiens) (UniProt Q9Y2K2); assay: Inhibition of SIK3 (unknown origin) at 10 uM in presence of ATP at Km concentration
# Chain of Serine/threonine-protein kinase SIK3 (Homo sapiens) (Q9Y2K2 whole entry, looked up): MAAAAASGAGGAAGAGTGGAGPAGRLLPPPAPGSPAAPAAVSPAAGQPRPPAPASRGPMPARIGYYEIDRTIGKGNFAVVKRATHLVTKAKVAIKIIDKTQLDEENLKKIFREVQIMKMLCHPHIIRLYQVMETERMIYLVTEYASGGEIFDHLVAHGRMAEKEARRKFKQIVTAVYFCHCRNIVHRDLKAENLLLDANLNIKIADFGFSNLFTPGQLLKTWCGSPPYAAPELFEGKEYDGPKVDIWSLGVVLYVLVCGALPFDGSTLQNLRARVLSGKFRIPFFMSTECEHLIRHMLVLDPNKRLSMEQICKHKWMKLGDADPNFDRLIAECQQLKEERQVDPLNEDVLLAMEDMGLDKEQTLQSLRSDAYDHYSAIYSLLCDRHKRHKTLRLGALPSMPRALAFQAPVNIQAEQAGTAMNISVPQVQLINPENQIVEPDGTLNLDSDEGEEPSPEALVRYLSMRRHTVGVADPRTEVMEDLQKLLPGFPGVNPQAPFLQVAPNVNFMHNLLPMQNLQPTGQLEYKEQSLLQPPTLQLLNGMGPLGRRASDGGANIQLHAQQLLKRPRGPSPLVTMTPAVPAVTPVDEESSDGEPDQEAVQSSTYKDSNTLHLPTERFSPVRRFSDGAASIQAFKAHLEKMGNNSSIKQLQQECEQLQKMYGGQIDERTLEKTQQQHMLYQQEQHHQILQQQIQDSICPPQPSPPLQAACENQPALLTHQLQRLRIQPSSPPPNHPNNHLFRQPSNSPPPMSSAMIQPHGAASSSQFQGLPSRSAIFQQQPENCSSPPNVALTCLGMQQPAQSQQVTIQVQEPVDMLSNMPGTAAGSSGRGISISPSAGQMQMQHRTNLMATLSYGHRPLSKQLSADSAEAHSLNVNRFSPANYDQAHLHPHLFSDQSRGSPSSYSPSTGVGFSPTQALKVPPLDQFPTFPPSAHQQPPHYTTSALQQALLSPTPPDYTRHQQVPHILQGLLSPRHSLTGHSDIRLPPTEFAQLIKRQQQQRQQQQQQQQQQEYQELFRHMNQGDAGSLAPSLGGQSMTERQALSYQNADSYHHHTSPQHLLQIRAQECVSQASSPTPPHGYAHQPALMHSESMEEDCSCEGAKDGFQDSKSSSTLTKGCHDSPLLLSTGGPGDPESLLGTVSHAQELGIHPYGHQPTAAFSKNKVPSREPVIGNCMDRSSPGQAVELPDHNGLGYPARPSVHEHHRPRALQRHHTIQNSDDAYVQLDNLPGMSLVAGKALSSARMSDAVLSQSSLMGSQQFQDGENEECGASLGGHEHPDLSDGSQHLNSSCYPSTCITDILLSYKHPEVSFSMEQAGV
# Chain of Phosphatidylinositol 4-phosphate 3-kinase C2 domain-containing subunit alpha (Homo sapiens) (O00443 whole entry, the tested form may be a part): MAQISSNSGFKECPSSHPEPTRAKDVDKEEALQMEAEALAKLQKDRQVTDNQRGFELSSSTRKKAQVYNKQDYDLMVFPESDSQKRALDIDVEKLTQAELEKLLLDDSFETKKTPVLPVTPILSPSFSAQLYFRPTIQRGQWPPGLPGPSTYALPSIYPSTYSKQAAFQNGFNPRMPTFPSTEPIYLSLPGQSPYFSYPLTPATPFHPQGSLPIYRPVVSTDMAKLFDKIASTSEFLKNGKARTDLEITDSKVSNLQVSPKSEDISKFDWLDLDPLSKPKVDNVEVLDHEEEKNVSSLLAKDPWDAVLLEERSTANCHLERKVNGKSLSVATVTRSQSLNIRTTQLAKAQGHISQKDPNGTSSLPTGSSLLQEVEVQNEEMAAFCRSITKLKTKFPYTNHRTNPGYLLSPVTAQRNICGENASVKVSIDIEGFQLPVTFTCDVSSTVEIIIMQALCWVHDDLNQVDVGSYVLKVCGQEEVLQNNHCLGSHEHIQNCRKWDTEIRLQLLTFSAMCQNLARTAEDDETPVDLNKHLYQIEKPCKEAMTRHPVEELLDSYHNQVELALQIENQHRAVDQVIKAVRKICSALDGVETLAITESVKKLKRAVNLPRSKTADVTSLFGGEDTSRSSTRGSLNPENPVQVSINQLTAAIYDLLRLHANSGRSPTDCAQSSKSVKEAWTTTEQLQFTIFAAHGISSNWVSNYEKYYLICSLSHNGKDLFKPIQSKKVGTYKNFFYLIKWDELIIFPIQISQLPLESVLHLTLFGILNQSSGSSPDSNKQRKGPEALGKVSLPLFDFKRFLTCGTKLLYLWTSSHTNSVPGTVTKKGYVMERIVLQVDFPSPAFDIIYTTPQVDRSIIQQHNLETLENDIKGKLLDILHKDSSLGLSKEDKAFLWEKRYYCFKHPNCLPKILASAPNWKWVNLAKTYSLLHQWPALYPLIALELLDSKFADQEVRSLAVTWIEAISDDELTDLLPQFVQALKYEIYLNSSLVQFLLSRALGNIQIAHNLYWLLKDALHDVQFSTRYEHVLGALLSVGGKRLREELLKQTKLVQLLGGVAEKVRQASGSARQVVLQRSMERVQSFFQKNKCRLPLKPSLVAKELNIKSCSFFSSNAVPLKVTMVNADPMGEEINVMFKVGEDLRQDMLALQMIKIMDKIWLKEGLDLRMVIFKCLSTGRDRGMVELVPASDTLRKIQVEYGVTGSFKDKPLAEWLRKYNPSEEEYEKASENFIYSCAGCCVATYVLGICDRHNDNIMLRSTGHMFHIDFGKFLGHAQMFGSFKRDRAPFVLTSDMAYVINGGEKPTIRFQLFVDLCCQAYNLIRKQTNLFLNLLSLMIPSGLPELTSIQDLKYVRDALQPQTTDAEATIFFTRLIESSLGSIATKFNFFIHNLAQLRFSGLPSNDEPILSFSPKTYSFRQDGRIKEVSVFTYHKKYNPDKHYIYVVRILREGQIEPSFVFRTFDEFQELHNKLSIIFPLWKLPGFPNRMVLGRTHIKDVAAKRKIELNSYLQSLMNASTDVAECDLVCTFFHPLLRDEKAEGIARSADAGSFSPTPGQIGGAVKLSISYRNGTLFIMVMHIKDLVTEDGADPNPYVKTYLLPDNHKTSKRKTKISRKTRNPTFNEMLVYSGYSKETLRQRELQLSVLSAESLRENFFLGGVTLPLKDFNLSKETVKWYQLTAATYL
# Chain of Mitogen-activated protein kinase kinase kinase kinase 5 (Homo sapiens) (Q9Y4K4 whole entry, looked up): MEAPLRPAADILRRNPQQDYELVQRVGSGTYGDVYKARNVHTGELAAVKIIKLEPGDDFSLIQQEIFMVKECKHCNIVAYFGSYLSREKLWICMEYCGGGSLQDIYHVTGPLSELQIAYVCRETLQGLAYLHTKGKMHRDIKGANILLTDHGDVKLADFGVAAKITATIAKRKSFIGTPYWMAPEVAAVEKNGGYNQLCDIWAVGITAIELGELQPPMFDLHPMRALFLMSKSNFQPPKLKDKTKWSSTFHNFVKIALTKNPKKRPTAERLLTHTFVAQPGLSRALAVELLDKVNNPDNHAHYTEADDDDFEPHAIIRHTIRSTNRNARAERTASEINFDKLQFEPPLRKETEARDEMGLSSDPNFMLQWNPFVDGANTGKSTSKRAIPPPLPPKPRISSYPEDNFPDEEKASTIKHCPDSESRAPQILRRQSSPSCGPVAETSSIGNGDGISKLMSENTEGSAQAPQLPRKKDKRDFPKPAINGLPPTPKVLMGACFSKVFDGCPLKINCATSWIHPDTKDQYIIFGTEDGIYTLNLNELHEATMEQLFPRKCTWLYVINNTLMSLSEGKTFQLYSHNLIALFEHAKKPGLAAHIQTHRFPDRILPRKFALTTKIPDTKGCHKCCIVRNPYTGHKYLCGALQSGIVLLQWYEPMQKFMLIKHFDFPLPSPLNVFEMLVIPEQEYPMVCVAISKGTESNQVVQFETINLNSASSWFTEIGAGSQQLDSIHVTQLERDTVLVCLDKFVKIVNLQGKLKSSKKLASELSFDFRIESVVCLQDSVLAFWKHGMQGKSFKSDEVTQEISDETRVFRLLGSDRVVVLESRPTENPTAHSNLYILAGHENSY
# Chain of TGF-beta receptor type-2 (Homo sapiens) (P37173 whole entry): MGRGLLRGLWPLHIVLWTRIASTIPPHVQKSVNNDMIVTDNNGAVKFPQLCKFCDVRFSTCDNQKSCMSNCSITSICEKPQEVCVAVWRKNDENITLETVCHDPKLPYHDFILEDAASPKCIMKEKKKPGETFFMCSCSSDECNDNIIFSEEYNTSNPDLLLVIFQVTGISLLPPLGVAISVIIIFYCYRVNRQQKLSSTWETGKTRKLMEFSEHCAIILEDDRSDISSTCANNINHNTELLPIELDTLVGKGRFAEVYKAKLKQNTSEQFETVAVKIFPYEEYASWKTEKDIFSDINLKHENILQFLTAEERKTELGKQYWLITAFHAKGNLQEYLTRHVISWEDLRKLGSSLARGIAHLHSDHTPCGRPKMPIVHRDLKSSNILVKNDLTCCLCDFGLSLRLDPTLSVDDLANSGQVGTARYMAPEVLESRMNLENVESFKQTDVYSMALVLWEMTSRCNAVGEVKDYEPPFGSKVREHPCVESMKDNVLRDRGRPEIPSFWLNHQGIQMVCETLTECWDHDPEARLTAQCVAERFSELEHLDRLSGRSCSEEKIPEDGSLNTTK
# Chain of Phosphatidylinositol 4-phosphate 5-kinase type-1 gamma (Homo sapiens) (O60331 whole entry): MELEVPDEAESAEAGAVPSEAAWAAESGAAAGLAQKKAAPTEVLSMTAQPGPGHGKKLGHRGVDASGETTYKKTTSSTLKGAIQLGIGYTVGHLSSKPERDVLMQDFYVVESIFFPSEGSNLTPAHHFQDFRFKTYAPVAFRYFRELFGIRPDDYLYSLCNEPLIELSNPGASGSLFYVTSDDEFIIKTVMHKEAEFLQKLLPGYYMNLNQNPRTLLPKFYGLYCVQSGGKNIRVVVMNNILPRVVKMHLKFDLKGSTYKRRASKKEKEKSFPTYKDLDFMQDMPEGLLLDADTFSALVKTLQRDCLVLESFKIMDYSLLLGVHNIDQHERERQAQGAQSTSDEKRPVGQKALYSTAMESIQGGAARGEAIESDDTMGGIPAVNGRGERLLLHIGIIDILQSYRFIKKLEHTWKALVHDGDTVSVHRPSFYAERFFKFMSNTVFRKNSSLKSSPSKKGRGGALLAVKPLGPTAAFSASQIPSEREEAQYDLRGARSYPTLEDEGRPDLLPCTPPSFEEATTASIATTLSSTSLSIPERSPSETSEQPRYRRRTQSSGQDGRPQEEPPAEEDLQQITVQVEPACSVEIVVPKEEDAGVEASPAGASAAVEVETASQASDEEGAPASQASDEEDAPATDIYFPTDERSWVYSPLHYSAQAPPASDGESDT
structure (smiles),measurement,setting,value
O=C(Nc1cc(Cl)cc(Cl)c1)Nc1nc2ccc([N+](=O)[O-])cc2s1,IC50,[1],2.5 µM
same,inhibition,[2],inactive
same,IC50,[3],2 µM
same,Activity,[4],Non-Toxic
same,inhibition,[5],inactive
same,inhibition,[6],inactive
same,inhibition at 5 µM,[7],> 75%
same,Cmax,[8],2 µM
same,Activity,[9],Non-Toxic
same,inhibition,[10],inactive
same,inhibition,[11],inactive
same,inhibition,[12],inactive
same,half-life,[13],> 1 h
same,inhibition,[14],inactive
same,remaining at 1 h,[15],71%
same,C0,[16],3.6 µM
same,inhibition,[17],inactive
same,inhibition,[18],inactive
same,IC50,[19],4 µM
same,inhibition,[20],inactive
same,IC50,[21],4 µM
same,inhibition,[22],inactive
same,AUC(0-inf),[23],19300 ng·h/mL
same,inhibition,[24],inactive
same,half-life,[25],2.2 h
same,Activity,[26],Non-Toxic
same,microsomal CLint,[27],< 116 µL/min/mg
same,inhibition,[28],inactive
same,Tmax,[29],1.5 h
same,Cmax,[30],5.2 µM
same,inhibition,[31],inactive
same,bioavailability,[32],22%
same,Activity,[33],Non-Toxic
same,inhibition,[34],inactive
same,Stability,[35],Stable
same,remaining at 1 h,[36],76%
same,AUC(0-inf),[37],14200 ng·h/mL
same,inhibition,[38],inactive
same,Activity,[39],Active
same,Activity,[40],Active
same,Activity,[41],Non-Toxic
same,inhibition,[42],Active
same,inhibition,[43],inactive
